Results: PubChem BioAssay (NCI)
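1) Cells in 96-well plates. 2) Compound, 48 h, 5 concentrations. 3) Linear interpolation between surrounding doses. 4) Unreached endpoint = highest concentration. GI50: concentration for 50% inhibition of growth. TGI: concentration producing complete growth inhibition.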

How the values were obtained:
Experiment in all cases: growth of human tumour cells (NCI), 48 h
786-0 renal = system: 786-0 renal
SN12C renal = system: SN12C renal
ACHN renal = system: ACHN renal
OVCAR-3 ovarian = system: OVCAR-3 ovarian
HCT-15 colon = system: HCT-15 colon
MALME-3M melanoma = system: MALME-3M melanoma
SK-MEL-2 melanoma = system: SK-MEL-2 melanoma
A549 NSCLC = system: A549 NSCLC
BT-549 breast = system: BT-549 breast
NCI-H226 lung = system: NCI-H226 lung
SK-OV-3 ovarian = system: SK-OV-3 ovarian
CAKI-1 renal = system: CAKI-1 renal
MDA-MB-231 breast = system: MDA-MB-231 breast
SF-295 CNS = system: SF-295 CNS
UO-31 renal = system: UO-31 renal
KM12 colon = system: KM12 colon
SW-620 colon = system: SW-620 colon
NCI-H522 lung = system: NCI-H522 lung
NCI-H460 lung = system: NCI-H460 lung
OVCAR-5 ovarian = system: OVCAR-5 ovarian
HOP-92 NSCLC = system: HOP-92 NSCLC
SF-268 CNS = system: SF-268 CNS
TK-10 renal = system: TK-10 renal
MOLT-4 leukemia = system: MOLT-4 leukemia
HOP-62 NSCLC = system: HOP-62 NSCLC
NCI-H23 lung = system: NCI-H23 lung
IGROV1 ovarian = system: IGROV1 ovarian
HS 578T breast = system: HS 578T breast
DU-145 prostate = system: DU-145 prostate
SF-539 CNS = system: SF-539 CNS
NCI/ADR-RES ovarian = system: NCI/ADR-RES ovarian
RPMI-8226 leukemia = system: RPMI-8226 leukemia
T-47D breast = system: T-47D breast
HCT-116 colon = system: HCT-116 colon
M14 melanoma = system: M14 melanoma
UACC-62 melanoma = system: UACC-62 melanoma
SK-MEL-5 melanoma = system: SK-MEL-5 melanoma
EKVX NSCLC = system: EKVX NSCLC
UACC-257 melanoma = system: UACC-257 melanoma
HCC-2998 colon = system: HCC-2998 colon
A498 renal = system: A498 renal
OVCAR-8 ovarian = system: OVCAR-8 ovarian
MCF7 breast = system: MCF7 breast
LOX IMVI melanoma = system: LOX IMVI melanoma
U251 CNS = system: U251 CNS
K-562 leukemia = system: K-562 leukemia
HT29 colon = system: HT29 colon
SNB-19 CNS = system: SNB-19 CNS
PC-3 prostate = system: PC-3 prostate
MDA-MB-435 = system: MDA-MB-435
RXF 393 renal = system: RXF 393 renal
SK-MEL-28 melanoma = system: SK-MEL-28 melanoma
COLO 205 colon = system: COLO 205 colon
OVCAR-4 ovarian = system: OVCAR-4 ovarian

## C=C1C(=O)O[C@H]2[C@H]1CC/C(COC(=O)NCc1ccc(Cn3c(=O)sn(CCI)c3=O)cc1)=C\CC[C@@]1(C)O[C@@H]21
786-0 renal
  GI50: 1.82 µM
  TGI: 3.36 µM
SN12C renal
  GI50: 2.16 µM
  TGI: 5.38 µM
ACHN renal
  GI50: 1.89 µM
  TGI: 3.37 µM
OVCAR-3 ovarian
  GI50: 1.64 µM
  TGI: 3.05 µM
HCT-15 colon
  GI50: 1.91 µM
  TGI: 4.1 µM
MALME-3M melanoma
  GI50: 1.68 µM
  TGI: 3.4 µM
SK-MEL-2 melanoma
  GI50: 11.7 µM
  TGI: 26.2 µM
A549 NSCLC
  GI50: 16.6 µM
  TGI: 32.4 µM
BT-549 breast
  GI50: 2.4 µM
  TGI: 6.08 µM
NCI-H226 lung
  GI50: 15.1 µM
  TGI: 33.1 µM
SK-OV-3 ovarian
  GI50: 15.2 µM
  TGI: 28.5 µM
CAKI-1 renal
  GI50: 3.79 µM
  TGI: 14 µM
MDA-MB-231 breast
  GI50: 1.77 µM
  TGI: 3.31 µM
SF-295 CNS
  GI50: 13.6 µM
  TGI: 27.1 µM
UO-31 renal
  GI50: 1.65 µM
  TGI: 3.11 µM
KM12 colon
  GI50: 8.15 µM
  TGI: 23.1 µM
SW-620 colon
  GI50: 1.66 µM
  TGI: 3.25 µM
NCI-H522 lung
  GI50: 1.72 µM
  TGI: 3.36 µM
NCI-H460 lung
  GI50: 6.42 µM
  TGI: 22.7 µM
OVCAR-5 ovarian
  GI50: 3.27 µM
  TGI: 10.1 µM
HOP-92 NSCLC
  GI50: 1.38 µM
  TGI: 2.76 µM
SF-268 CNS
  GI50: 2.41 µM
  TGI: 6.26 µM
TK-10 renal
  GI50: 1.91 µM
  TGI: 3.68 µM
MOLT-4 leukemia
  GI50: 1.35 µM
  TGI: 5.35 µM
HOP-62 NSCLC
  GI50: 11.7 µM
  TGI: 24.2 µM
NCI-H23 lung
  GI50: 3.46 µM
  TGI: 13.6 µM
IGROV1 ovarian
  GI50: 2.08 µM
  TGI: 4.07 µM
HS 578T breast
  GI50: 7.29 µM
  TGI: 42.4 µM
DU-145 prostate
  GI50: 1.82 µM
  TGI: 3.29 µM
SF-539 CNS
  GI50: 1.72 µM
  TGI: 3.18 µM
NCI/ADR-RES ovarian
  GI50: 20.3 µM
  TGI: 47.2 µM
RPMI-8226 leukemia
  GI50: 1.98 µM
  TGI: 5.11 µM
T-47D breast
  GI50: 1.32 µM
  TGI: 3.06 µM
HCT-116 colon
  GI50: 1.76 µM
  TGI: 3.27 µM
M14 melanoma
  GI50: 1.82 µM
  TGI: 3.59 µM
UACC-62 melanoma
  GI50: 1.98 µM
  TGI: 4.08 µM
SK-MEL-5 melanoma
  GI50: 5.37 µM
  TGI: 17.9 µM
EKVX NSCLC
  GI50: 2.11 µM
  TGI: 5.58 µM
UACC-257 melanoma
  GI50: 2.24 µM
  TGI: 4.82 µM
HCC-2998 colon
  GI50: 10.4 µM
  TGI: 22.5 µM
A498 renal
  GI50: 4.44 µM
  TGI: 20 µM
OVCAR-8 ovarian
  GI50: 4.55 µM
  TGI: 18.9 µM
MCF7 breast
  GI50: 1.71 µM
  TGI: 3.64 µM
LOX IMVI melanoma
  GI50: 1.69 µM
  TGI: 3.11 µM
U251 CNS
  GI50: 4.67 µM
  TGI: 16 µM
K-562 leukemia
  GI50: 0.655 µM
  TGI: > 100 µM
HT29 colon
  GI50: 2.1 µM
  TGI: 4.05 µM
SNB-19 CNS
  GI50: 6.88 µM
  TGI: 19.9 µM
PC-3 prostate
  GI50: 1.75 µM
  TGI: 3.33 µM
MDA-MB-435
  GI50: 2.45 µM
  TGI: 6.62 µM
RXF 393 renal
  GI50: 1.61 µM
  TGI: 3.13 µM
SK-MEL-28 melanoma
  GI50: 2.06 µM
  TGI: 3.74 µM
COLO 205 colon
  GI50: 1.86 µM
  TGI: 3.55 µM
OVCAR-4 ovarian
  GI50: 2.02 µM
  TGI: 4.19 µM
